Measured values published in US8642657B2 (Gruenenthal GmbH, priority 2003, dated 2014).

What was measured:
[1] = target: T1, rat VR1 (Rattus norvegicus, UniProt O35433); test: [3H]resiniferatoxin (RTX) competition binding assay, VR1-transfected CHO cells
T1 construct: expressed in transfected cells
Method in brief: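 Competition with [3H]RTX (50-100 pM) ran 60 min at 37° C using whole VR1-induced CHO cells in BSA-containing DPBS, nonspecific defined by 100 nM cold RTX. After centrifugation, pellet radioactivity counted by scintillation; Hill fits gave Ki and cooperativity.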

[2] = target: T1, rat VR1; test: 45Ca2+-uptake assay in CHO/VR1 cells, antagonism of capsaicin-stimulated uptake; assay type: cell-based; details: 45Ca2+ uptake stimulated by 50 nM capsaicin
Protocol: Initial stocks were dissolved in DMSO. For the binding assays, compounds were diluted in with DPBS with Ca^2+ and Mg^2+ and 0.25 mg/mL bovine serum albumin. For the calcium uptake assays, compounds were diluted in DMEM with 0.25 mg/mL bovine serum albumin.
Molecules were characterized to determine whether they were full agonists, partial agonists, or antagonists. For studies of ^45Ca^2+ uptake by CHO/VR1 cells (Tet-off cells), the cells were plated in 24-well plates to yield a cell density 20-40% of that required to produce confluence. The next day the medium was changed to remove the tetracycline and induce VR1 expression. Experiments were performed approximately 36-40 hours after induction. For ^45Ca^2+ uptake assay, cells were incubated for 5 min at 37° C. in a total volume of 400 μL of serum free DMEM (containing 1.8 mM CaCl2) in the presence of 0.25 mg/mL BSA (Sigma), 1 μCi/mL ^45Ca^2+ (5-30 Ci/g from ICN, CA), and increasing concentrations of the compound to be tested. Immediately after the incubation, extracellular ^45Ca^2+ was removed by washing the cells three times with cold DPBS (containing 1.8 mM CaCl2). Then 400 μl RIPA buffer (50 mM Tris pH 7.4; 150 mM NaCl; 1% Triton X-100; 0.1% SDS; 1% sodium deoxycholate) was added to each well in order to lyse the cells. Plates were shaken slowly for 20 min; then 306 μL of cell lysate was transferred from each well into a scintillation vial and radioactivity was determined by scintillation counting. For each data point in each experiment, four wells were assayed. Data from these experiments were analyzed by computer fit to the Hill equation. At least 3 separate experiments were carried out for each compound. In order to determine antagonist activity, studies were performed in exactly the same fashion with the exception that 50 nM capsaicin was added to the assay mixture to stimulate ^45Ca^2+ uptake.

[3] = competition with [3H]RTX, rat VR1 in CHO cells, read-out: Ki (nM) Binding Affinity

T1 sequence (O35433 whole entry): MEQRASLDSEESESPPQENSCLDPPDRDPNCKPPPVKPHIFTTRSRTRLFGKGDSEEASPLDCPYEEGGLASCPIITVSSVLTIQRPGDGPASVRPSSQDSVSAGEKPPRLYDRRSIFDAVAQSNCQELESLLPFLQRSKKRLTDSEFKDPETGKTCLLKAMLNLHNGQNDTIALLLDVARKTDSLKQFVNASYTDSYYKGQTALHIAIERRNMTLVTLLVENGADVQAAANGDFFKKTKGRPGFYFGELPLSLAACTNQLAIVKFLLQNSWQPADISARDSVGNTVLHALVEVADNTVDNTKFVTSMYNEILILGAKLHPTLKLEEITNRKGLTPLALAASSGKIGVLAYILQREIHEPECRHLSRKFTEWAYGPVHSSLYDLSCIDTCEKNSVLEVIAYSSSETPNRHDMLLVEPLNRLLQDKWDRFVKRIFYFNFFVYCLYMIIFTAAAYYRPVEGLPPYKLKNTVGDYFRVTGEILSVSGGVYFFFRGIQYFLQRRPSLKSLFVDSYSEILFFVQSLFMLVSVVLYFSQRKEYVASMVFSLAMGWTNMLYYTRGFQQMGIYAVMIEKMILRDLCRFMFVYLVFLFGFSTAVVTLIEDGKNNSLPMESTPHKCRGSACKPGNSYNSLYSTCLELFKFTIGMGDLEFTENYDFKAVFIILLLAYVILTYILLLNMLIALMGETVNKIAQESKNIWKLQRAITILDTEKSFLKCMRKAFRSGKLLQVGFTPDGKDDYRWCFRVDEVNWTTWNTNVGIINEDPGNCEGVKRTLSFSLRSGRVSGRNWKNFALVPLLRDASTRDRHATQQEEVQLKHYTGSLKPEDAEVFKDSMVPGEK

`COc1cc(C(C)(C)C(=O)NCC(COC(=O)C(C)(C)C)Cc2ccc(C)c(C)c2)ccc1NS(C)(=O)=O` (stereo not drawn) [9-3, N-[2-(3,4-Dimethylbenzyl)-3-pivaloyloxypropyl]-2-[3-methoxy-4-(methylsulfonylamino)phenyl]-2-methylpropionamide] gave a Ki [1, 3] of 152 nM, a melting point of 100 to 103 °C and a Ki [2] of 133 nM.

For `Cc1ccc(CC(CNC(=O)C(C)c2ccc(NS(C)(=O)=O)cc2)COC(=O)C(C)(C)C)cc1C` (stereo not drawn) [5-1, N-[2-(3,4-Dimethylbenzyl)-3-pivaloyloxypropyl]-2-[4-(methylsulfonylamino)phenyl]propionamide], the Ki [1, 3] was 119 nM, the melting point was 112 to 115 °C and the Ki [2] was 38 nM.

With `COc1cc(C(C)NC(=S)NCc2ccc(C(C)(C)C)cc2)ccc1NS(C)(=O)=O` (stereo not drawn) [15-3, N-(4-t-Butylbenzyl)-N′-{1-[3-methoxy-4-(methylsulfonylamino)phenyl]ethyl}thiourea] the Ki [1, 3] was 66.5 nM, the melting point was 80 to 82 °C and the Ki [2] was 28.6 nM.

With `Cc1ccc(CC(CNC(=O)C(C)(C)c2ccc(NS(C)(=O)=O)cc2)COC(=O)C(C)(C)C)cc1C` (stereo not drawn) [9-1, N-[2-(3,4-Dimethylbenzyl)-3-pivaloyloxypropyl]-2-[4-(methylsulfonylamino)phenyl]-2-methylpropionamide] the Ki [1, 3] was 372 nM, the melting point was 126 to 130 °C and the Ki [2] was 103 nM.

In the case of `CC(C(=O)NCc1ccc(Cl)c(Cl)c1)c1ccc(NS(C)(=O)=O)c(F)c1` (stereo not drawn) [4-4, N-(3,4-Dichlorobenzyl)-2-[3-fluoro-4-(methylsulfonylamino)phenyl]propionamide], the Ki [1, 3] is reported as 199 nM, the melting point is reported as 130 to 133 °C and the Ki [2] is reported as 115 nM.

In the case of `CC(C(=O)NCc1ccc(C(C)(C)C)cc1)c1ccc(NS(C)(=O)=O)cc1` (stereo not drawn) [2-7, N-(4-tert-Butylbenzyl)-2-[4-(methylsulfonylamino)phenyl]propionamide], the Ki [1, 3] is reported as 105 nM, the melting point is reported as 77 to 79 °C and the Ki [2] is reported as 17.5 nM.

In the case of `Cc1ccc(CC(CNC(=S)NC(C)c2ccc(NS(C)(=O)=O)c(F)c2)COC(=O)C(C)(C)C)cc1C` (stereo not drawn) [18-13, N-[2-(3,4-Dimethylbenzyl)-3-(pivaloyloxy)propyl]-N′-{1-[3-fluoro-4-(methylsulfonylamino)phenyl]ethyl}thiourea], the Ki [1] is reported as 37 nM, the melting point is reported as 73 °C and the Ki [2] is reported as 7.09 nM.

Work on `C[C@@H](NC(=S)NC[C@@H](COC(=O)C(C)(C)C)Cc1ccccc1)c1ccc(NS(C)(=O)=O)cc1` [18-2, N-[(2S)-2-Benzyl-3-(pivaloyloxy)propyl]-N′-{(1R)-1-[4-(methylsulfonylamino)phenyl]ethyl}thiourea] yielded a Ki [1] of 19.4 nM, a melting point of 58 to 62 °C and a Ki [2] of 89 nM.

Work on `CC(C)(C)c1ccc(CNC(=S)NC2(c3ccc(NS(C)(=O)=O)cc3)CC2)cc1` [22-7, N-(4-t-Butylbenzyl)-N′-{1-[4-(methylsulfonylamino)phenyl]cyclopropyl}thiourea] yielded a Ki [1, 3] of 171 nM, a melting point of 110 to 113 °C and a Ki [2] of 60.3 nM.

`CC(C(=O)NCc1ccc(C(C)(C)C)cc1)c1ccc(NS(C)(=O)=O)c(C#N)c1` (stereo not drawn) [1-56, N-(4-tert-Butylbenzyl)-2-[3-cyano-4-(methylsulfonylamino)phenyl]propionamide] showed a Ki [1, 3] of 344 nM, a melting point of 102 to 105 °C and a Ki [2] of 467 nM.

Work on `CC(C(=O)NCC=C1c2ccccc2CCc2ccccc21)c1ccc(NS(C)(=O)=O)c(F)c1` (stereo not drawn) [4-28, N-[2-(10,11-Dihydro-5H-dibenzo[a,d]cyclohepten-5-yliden)ethyl]-2-[3-fluoro-4-(methylsulfonylamino)phenyl]propionamide] yielded a Ki [1, 3] of 141 nM, a melting point of 67 to 69 °C and a Ki [2] of 121 nM.

With `CC(C(=O)NCc1ccc(C(C)(C)C)cc1)c1cc(F)c(NS(C)(=O)=O)c(F)c1` (stereo not drawn) [1-55, N-(4-tert-Butylbenzyl)-2-[3,5-difluoro-4-(methylsulfonylamino)phenyl]propionamide] the Ki [1, 3] was 19.9 nM, the melting point was 80 to 81 °C and the Ki [2] was 7.38 nM.

Work on `CC(C)(C)c1ccc(CNC(=O)C(C)(C)c2ccc(NS(C)(=O)=O)c(F)c2)cc1` [9-8, N-(4-tert-Butylbenzyl)-2-[3-fluoro-4-(methylsulfonylamino)phenyl]-2-methylpropionamide] yielded a Ki [1, 3] of 1070 nM, a melting point of 48 to 51 °C and a Ki [2] of 467 nM.

In the case of `CC(NC(=O)Cc1ccc(C(C)(C)C)cc1)c1ccc(NS(C)(=O)=O)c(F)c1` (stereo not drawn) [24-1, N-{1-[3-Fluoro-4-(methylsulfonylamino)phenyl]ethyl}-3-(4-tert-butylphenyl)acetamide], the Ki [1, 3] is reported as 2130 nM, the melting point is reported as 134 to 136 °C and the Ki [2] is reported as 2220 nM.

Work on `COc1cc(C2(NC(=S)NCc3ccc(C(C)(C)C)cc3)CC2)ccc1NS(C)(=O)=O` [22-9, N-(4-t-Butylbenzyl)-N′-{1-[3-methoxy-4-(methylsulfonylamino)phenyl]cyclopropyl}thiourea] yielded a Ki [1, 3] of 372 nM, a melting point of 100 to 103 °C and a Ki [2] of 243 nM.

`CC(C(=O)NCc1ccc(Cl)c(Cl)c1)c1ccc(NS(C)(=O)=O)cc1` (stereo not drawn) [2-9, N-(3,4-Dichlorobenzyl)-2-[4-(methylsulfonylamino)phenyl]propionamide] gave a Ki [1] of 1650 nM, a melting point of 130 °C and a Ki [2] of 253 nM.

`Cc1ccc(CC(CNC(=O)C(C)(C)c2ccc(NS(C)(=O)=O)c(F)c2)COC(=O)C(C)(C)C)cc1C` (stereo not drawn) [9-2, N-[2-(3,4-Dimethylbenzyl)-3-pivaloyloxypropyl]-2-[3-fluoro-4-(methylsulfonylamino)phenyl]-2-methylpropionamide] showed a Ki [1] of 276 nM, a melting point of 53 to 55 °C and a Ki [2] of 65.4 nM.

In the case of `CC(C(=O)NCc1ccc(Cl)cc1)c1ccc(NS(C)(=O)=O)c(F)c1` (stereo not drawn) [4-1, N-(4-Chlorobenzyl)-2-[3-fluoro-4-(methylsulfonylamino)phenyl]propionamide], the Ki [1, 3] is reported as 1060 nM, the melting point is reported as 129 to 130 °C and the Ki [2] is reported as 367 nM.

In the case of `CC(NC(=S)NCc1ccc(C(C)(C)C)cc1)c1ccc(NS(C)(=O)=O)c(F)c1` (stereo not drawn) [15-2, N-(4-t-Butylbenzyl)-N′-{1-[3-fluoro-4-(methylsulfonylamino)phenyl]ethyl}thiourea], the Ki [1, 3] is reported as 54 nM, the melting point is reported as 165 °C and the Ki [2] is reported as 9.16 nM.

Compound `C[C@H](NC(=S)NC[C@H](COC(=O)C(C)(C)C)Cc1ccccc1)c1ccc(NS(C)(=O)=O)cc1` [18-3, N-[(2R)-2-Benzyl-3-(pivaloyloxy)propyl]-N′-{(1S)-1-[4-(methylsulfonylamino)phenyl]ethyl}thiourea] has a Ki [1] of 1140 nM, a melting point of 58 to 62 °C and a Ki [2] of 3470 nM.

Work on `Cc1ccc(CC(CNC(=O)C(C)c2ccc(NS(C)(=O)=O)c(Cl)c2)COC(=O)C(C)(C)C)cc1C` (stereo not drawn) [5-7, N-[2-(3,4-Dimethylbenzyl)-3-pivaloyloxypropyl]-2-[3-chloro-4-(methylsulfonylamino)phenyl]propionamide] yielded a Ki [1, 3] of 11.3 nM, a melting point of 127 to 129 °C and a Ki [2] of 35.7 nM.

For `CC(C(=O)NCc1ccc(Cl)c(Cl)c1)c1ccc(NS(C)(=O)=O)c(Cl)c1` (stereo not drawn) [4-5, N-(3,4-Dichlorobenzyl)-2-[3-chloro-4-(methylsulfonylamino)phenyl]propionamide], the Ki [1] was 289 nM, the melting point was 129 to 130 °C and the Ki [2] was 176 nM.

`COC(=O)c1cc(C(C)NC(=S)NCc2ccc(C(C)(C)C)cc2)ccc1NS(C)(=O)=O` (stereo not drawn) [15-4, N-(4-t-Butylbenzyl)-N′-{1-[3-(methoxycarbonyl)-4-(methylsulfonylamino)phenyl]ethyl}thiourea] showed a Ki [1] of 163 nM, a melting point of 132 to 135 °C and a Ki [2] of 65.8 nM.

With `Cc1ccc(C(=CCNC(=O)C(C)c2ccc(NS(C)(=O)=O)c(F)c2)c2ccc(C)cc2)cc1` (stereo not drawn) [4-26, N-[3,3-Di(4-methylphenyl)-2-propenyl]-2-[3-fluoro-4-(methylsulfonylamino)phenyl]propionamide] the Ki [1] was 36 nM, the melting point was 163 to 165 °C and the Ki [2] was 8.03 nM.

Compound `CC(C(=O)NCc1ccc(C(C)(C)C)cc1)c1ccc(NS(C)(=O)=O)c(I)c1` (stereo not drawn) [1-54, N-(4-tert-Butylbenzyl)-2-[3-iodo-4-(methylsulfonylamino)phenyl]propionamide] has a Ki [1, 3] of 23.3 nM, a melting point of 71 °C and a Ki [2] of 29.9 nM.

In the case of `COc1cc(C2(C(=O)NCC(COC(=O)C(C)(C)C)Cc3ccc(C)c(C)c3)CC2)ccc1NS(C)(=O)=O` (stereo not drawn) [12-3, N-[2-(3,4-Dimethylbenzyl)-3-pivaloyloxypropyl]-1-[3-methoxy-4-(methylsulfonylamino)phenyl]cyclopropanecarboxamide], the Ki [1, 3] is reported as 238 nM, the melting point is reported as 66 to 68 °C and the Ki [2] is reported as 117 nM.

With `CC(C(=O)NCC(c1ccccc1)c1ccccc1)c1ccc(NS(C)(=O)=O)c(F)c1` (stereo not drawn) [4-23, N-(2,2-Diphenylethyl)-2-[3-fluoro-4-(methylsulfonylamino)phenyl]propionamide] the Ki [1, 3] was 1700 nM, the melting point was 129 °C and the Ki [2] was 2490 nM.
